We go through 37 compounds from PubChem BioAssay AID624265 (Broad Institute, 2012).

The test deals with NIH3T3 viability, CellTiter-Glo ATP luminescence. Briefly: cytotoxicity in NIH3T3 fibroblasts, dose response, cytotoxicity control for HSP40 inhibitor project, cell-based, CellTiter-Glo luminescence, cherry-pick, set 2 (AID 624265).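 Also: cells exposed to compound for 48 hours before the ATP read.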 On the technique in general: In ATP-based viability assays light output follows the ATP content of the culture.

Structures are written as SMILES.

Regarding `CCc1cc(SC#N)cc(C)c1NC(=O)CCl`, the AC35 is 49.6 µM. Regarding `Oc1ccc(/C=N/Nc2ccc(C(F)(F)F)cn2)c(O)c1`, the AC35 was 43.9 µM.

With `COc1ccc(O)c(C(=O)CC(=O)c2ccc(F)cc2)c1`, the AC35 is 52.3 µM. On to `Nc1cc2nc3ccccc3oc-2cc1=O`, for which the AC35 was 28 µM. Turning to `CN(C)c1nc(-c2ccccn2)nnc1-c1ccccc1`, the AC35 is 43.5 µM. As for `Oc1cccc2ccc(Nc3ccccn3)nc12`, the AC35 was 14.2 µM. `CCCCCCCCCCOC(=O)Cn1c(COc2ccccc2OC)[n+](C)c2ccccc21`: the AC35 was 26.7 µM.

As to `C=C1C(=O)C23CCC4C(C)(C(=O)OC)CCCC4(C)C2CCC1(O)C3` (configuration not stated), the AC35 was 10.1 µM. Regarding `CN(Cc1ccc(Cl)s1)C(=O)CCl`, the AC35 was 25 µM. In the case of `Cc1c(Cc2ccccc2)c(NCCN(C)C)n2c(nc3ccccc32)c1C#N` it was 16.3 µM.

For `CC1=CC(=O)C=C(C)C1=NOS(=O)(=O)c1ccccc1`, the AC35 is 27.6 µM.

`COc1cccc(/C=N/Nc2ncnc3scc(-c4ccccc4)c23)c1O`: the AC35 is 48.4 µM.

Turning to `Oc1c(C(Nc2cccc(C(F)(F)F)c2)c2ccncc2)ccc2cccnc12` (configuration not stated), the AC35 was 48.9 µM. For the compound `COc1cccc(/C=N/Nc2ncnc(Cl)c2N)c1O`, the AC35 was 47.2 µM. As for `CC(=O)C1=C(c2ccc(Br)cc2)C(=O)c2ccccc2C1=O`, the figure is 26.2 µM; as for `CCCCOC(=O)/C=C/c1ccc(OC(=O)OC)c(OC(=O)OC)c1`, 50.7 µM; as for `O=CC1=C(c2ccccc2)Oc2ccccc2O1`, 47.5 µM.

Regarding `Cc1cccc2sc(NNC(=O)c3ccc(S(=O)(=O)N4CCCC(C)C4)cc3)nc12` (configuration not stated), the AC35 is 40.5 µM. As for `Cc1[nH]n(-c2ccccc2)c(=O)c1/C=N/Nc1nncc(-c2ccccc2)n1`, the figure is 19.5 µM; as for `Cc1oc2c(c1C(=O)c1ccccc1)C(=O)C(=O)c1ccccc1-2`, 8.43 µM. As to `CCCCNc1c(-c2cccc(Sc3ccc(OC)cc3)c2)nc2ccccn12`, the AC35 is 39.2 µM.

For the compound `Oc1ccc(N=Nc2ccc3c(c2)OCCO3)c2cccnc12`, the AC35 is 50.2 µM. Regarding `CCC(=O)NC(c1ccco1)c1cc(Cl)c2cccnc2c1O` (configuration not stated), the AC35 is 49.1 µM. As for `CC(C)N1CCN(c2ccc(OCC3COC(Cn4cncn4)(c4ccc(Cl)cc4Cl)O3)cc2)CC1` (configuration not stated), the figure is 12.4 µM; as for `CCCCNc1c(-c2cccc(-c3ccc(OC)cc3)c2)nc2ccc(C)cn12`, 22.7 µM.

Turning to `O=[N+]([O-])c1ccc(Sc2cccc[n+]2[O-])c2nonc12`, the AC35 is 4.46 µM. As for `Cc1ccc(Cl)cc1NC1=C/C(=N\S(=O)(=O)c2cccs2)c2ccccc2C1=O`, the figure is 8.07 µM; as for `O=C(Nc1nc(-c2ccccn2)cs1)c1ccc(Br)s1`, 27.1 µM; as for `Cc1ccc(S(=O)(=O)Nc2ccc(O)c3cccnc23)cc1`, 33 µM. In the case of `CC(C)N1CCN(c2ccc(OC[C@H]3CO[C@](Cn4cncn4)(c4ccc(Cl)cc4Cl)O3)cc2)CC1`, the AC35 was 30.8 µM. Regarding `CCOC(=O)c1cc2c(=Cc3ccc(N(C)C)cc3)c3ccccc3n2[n+]1C`, the AC35 is 29 µM.

As for `CC1CCN(c2nc(-c3ccncc3)nc3ccccc23)CC1`, the AC35 is 49.6 µM. As for `CN(C)c1ccc(C=c2c3ccccc3n3c2c2c([n+]3C)CCCC2)cc1`, the AC35 is 33.3 µM. For `CC(=O)Oc1ccc(OC(C)=O)c(SCCCCCCl)c1`, the AC35 was 42.6 µM. As for `CC[n+]1c(/C=C/C=C/c2ccc(N(C)C)cc2)sc2ccccc21`, the figure is 24.4 µM; as for `CNc1ccc2oc(C[C@H]3O[C@@]4(CC[C@H]3C)O[C@H]([C@H](C)C(=O)c3ccc[nH]3)[C@H](C)C[C@H]4C)nc2c1C(=O)O`, 11.1 µM; as for `O=C1c2cc(F)ccc2-n2c1nc1ccccc1c2=O`, 50 µM.
